Measured values published in US20240067600A1, “SMALL MOLECULE INHIBITORS OF THE MITOCHONDRIAL PERMEABILITY TRANSITION PORE (mtPTP)” (UNIVERSITY OF KANSAS, priority 2014, published 2024).
Where two headings read alike, the source gives them in different places.

Legend:
Type in all cases: biochemical, mice
mtPTP = experiment: Calcium retention capacity (CRC) assay on isolated mitochondria; settings: for Calcium Retention Capacity (CRC/CRC0 at 12.5 μM): 12.5 μM compound; for Calcium Retention Capacity (CRC/CRC0) at 1.56 μM: 1.56 μM compound
Description: Assay buffer: 250 mM sucrose, 10 mM MOPS-Tris, 0.01 mM EGTA-Tris, 1.0 mM phosphoric acid-Tris, pH 7.4. • Solution 1. 10 mM glutamate and 5 mM malate in Assay buffer. • Solution 2. 1% DMSO in Solution 2. • Solution 3. 0.5 mg/mL mitochondria and 1.0 μM Calcium Green-5N in Assay Buffer. • Solution 4. 0.25 mM CaCl2).
Protocol Summary: • 1. Freshly isolate mitochondria, prepare solutions according to the recipes in the Reagent Section. • 2. Dispense 100 μL of Solution 2 to Columns 1-2 (negative control) of the 96-well black assay plate (Falcon 353376). • 3. Dispense 200 μL of Solution 1 to Row A Columns 3-12. • 4. Next, dispense 100 μL of Solution 2 to Rows B-H Columns 3-12. • 5. Add 4 μL of 5 mM test compounds in DMSO to Row A Columns 3-12, perform 1:2 serial dilutions Row A to H Columns 3-12. • 6. Finally, dispense 100 μL of Solution 3 in all wells. • 7. Experiment starts. Read Calcium Green-5N fluorescence (excitation 485 nm, emission 538 nm) and perform a train of 4 μL Solution 4 additions with Fluoroskan Ascent FL, Thermo Scientific.

[1] = test system: Mitochondrial Permeability Transition Pore; experiment: Mitochondrial swelling absorbance assay
Description: Mitochondrial Swelling (Hit Validation, Confirmatory Assay, Concentration-Response, AID No. 720722)
Assay buffer: 250 mM sucrose, 10 mM MOPS-Tris, 0.01 mM EGTA-Tris, 1.0 mM phosphoric acid-Tris, pH 7.4 • Solution 1. 5.0 mM glutamate and 2.5 mM malate in Assay buffer. • Solution 2. 80-120 μM CaCl2) depending on mitochondrial activity in Solution 1. Note: Concentration of Ca^2+ in the assay is dependent upon the activity of the isolated mitochondria which is determined via a calcium titration just before each screening batch. A Ca^2+ concentration is used that allows for the arrival at a 2:1 window at the 20 minute time period. • Solution 3. 1% DMSO in Solution 2. • Solution 4. 2.0 mM EGTA-Tris, pH 7.4 in Solution 3. • Solution 5. 0.5 mg/mL mitochondria in Assay Buffer.
Protocol Summary: • 1. Freshly isolate mitochondria, prepare solutions according to the recipes in the reagent section • 2. Dispense 100 μL of Solution 4 to Columns 1-2 and Solution 3 Columns 11-12 (positive and negative controls, respectively) of the 96-well clear assay plate (Falcon 353072) • 3. Dispense 200 μL of Solution 1 to Row A Columns 3-10. • 4. Next, dispense 100 μL of Solution 3 to Rows B-H Columns 3-10. • 5. Add 4 μL of 5 mM test compounds in DMSO to Row A Columns 3-10, perform 1:2 serial dilutions Row A to H Columns 3-10. • 6. Finally, dispense 100 μL of Solution 5 in all wells. The reaction starts. • 7. Keep the plate at room temperature for 20 minutes and then read absorbance at 540 nm on MultiSkan EX, Thermo Scientific.
Concentration-Response Assay to Identify Compounds that Inhibit Mitochondrial Swelling (SAR Assay AID No. 743359)
Assay buffer: 250 mM sucrose, 10 mM MOPS-Tris, 0.01 mM EGTA-Tris, 1.0 mM phosphoric acid, pH 7.4 • Solution 1. 5.0 mM glutamate and 2.5 mM malate in Assay Buffer. • Solution 2. 100-120 μM CaCl2) depending on mitochondrial activity in Solution 1. Note: Concentration of Ca^2+ in the assay is dependent upon the activity of the isolated mitochondria which is determined via a calcium titration just before each screening batch. A Ca^2+ concentration is used that allows for the arrival at a 2:1 window at the 20 minute time period. • Solution 3. 1% DMSO in Solution 2. • Solution 4. 2.0 mM EGTA-Tris, pH 7.4 in Solution 3. • Solution 5. 0.5 mg/mL mitochondria in Assay Buffer.
Protocol Summary: • 1. Freshly isolate mitochondria, prepare solutions according to the recipes in the Reagent Section. • 2. Dispense 100 μL of Solution 4 to Columns 1-2 and Solution 3 Columns 11-12 (positive and negative controls, respectively) of the 96-well clear assay plate (Falcon 353072). • 3. Dispense 200 μL of Solution 1 to Row A Columns 3-10. • 4. Next, dispense 100 μL of Solution 3 to Rows B-H Columns 3-10. • 5. Add 4 μL of 5 mM test compounds in DMSO to Row A Columns 3-10, perform 1:2 serial dilutions Row A to H Columns 3-10. • 6. Finally, dispense 100 μL of Solution 5 in all wells. The reaction starts. • 7. Keep the plate at room temperature for 20 minutes and then read absorbance at 540 nm on MultiSkan EX, Thermo Scientific.

IMM potential = experiment: Rhodamine 123 (Rh123) uptake counterscreen;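 further: isolated mitochondria respiring on glutamate plus malate in sucrose MOPS-Tris buffer at pH 7.4, Rh123 added with the organelles, compounds tested across a twofold dilution series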
Description: Assay buffer: 250 mM sucrose, 10 mM MOPS-Tris, 0.01 mM EGTA-Tris, 1.0 mM phosphoric acid-Tris, pH 7.4 • Solution 1. 5.0 mM glutamate and 2.5 mM malate in Assay Buffer. • Solution 2. 1% DMSO in Solution 1. • Solution 3. 0.8 μM FCCP (the stock 40 μM in DMSO) in Solution 1. • Solution 4. 0.5 mg/mL mitochondria and 0.8 μM Rh123 in Assay Buffer.
Protocol Summary: • 1. Freshly isolate mitochondria, prepare solutions according to the recipes in the Reagent Section. • 2. Dispense 100 μL of Solution 3 to Columns 1-2 and Solution 2 Columns 11-12 (positive and negative controls, respectively) of the 96-well black assay plate (Falcon 353376). • 3. Dispense 200 μL of Solution 1 to Row A Columns 3-10. • 4. Next, dispense 100 μL of Solution 2 to Rows B-H Columns 3-10. • 5. Add 4 μL of 10 mM test compounds in DMSO to Row A Columns 3-10, perform 1:2 serial dilutions Row A to H Columns 3-10. • 6. Finally, dispense 100 μL of Solution 4 in all wells. The reaction starts. • 7. Keep the plate at room temperature for 5 minutes and then read fluorescence (excitation 485 nm, emission 538 nm) on Fluoroskan Ascent FL, Thermo Scientific.
Concentration-Response Counterscreen Assay to Identify Compounds that Prevent Mitochondrial Swelling Via Interference with the IMM Potential (SAR Assay AID No. 743361)
Assay buffer: 250 mM sucrose, 10 mM MOPS-Tris, 0.01 mM EGTA-Tris, 1.0 mM phosphoric acid-Tris, pH 7.4 • Solution 1. 5.0 glutamate and 2.5 mM malate in Assay Buffer. • Solution 2. 1% DMSO in Solution 1. • Solution 3. 0.8 μM FCCP (the stock 40 μM in DMSO) in Solution 1. • Solution 4. 0.5 mg/mL mitochondria and 0.8 μM Rh123 in Assay Buffer.

[2] = Table 1, read-out: Rh123 uptake (EC50)
[3] = Table 2, average of >3 experiments ± SEM
[4] = Table 2, average of >3 experiments ± SEM, read-out: Rh123 Assay EC50
[5] = Table 1, unit inferred, average ± SEM

Row | EC50 ([1]; Table 1, average ± SEM) [nM] | EC50 [1, 3] [nM] | EC50 [1, 5] [nM] | Structure (SMILES) | Calcium Retention Capacity (CRC/CRC0 at 12.5 μM) (mtPTP; Table 1, average ± SEM) | EC50 (IMM potential; [2]) [µM] | Calcium Retention Capacity (CRC/CRC0 at 12.5 μM) (mtPTP; [3]) | EC50 (IMM potential; [4]) [µM] | Calcium Retention Capacity (CRC/CRC0) at 1.56 μM (mtPTP; Table 1, average ± SEM)
1 | 46000 ± 1360 |  |  | C[C@@H]1CCC[C@H](C)N1CCCC(=O)c1ccc(Br)cc1 | 1.01 ± 0.02 | > 100 |  |  | 
2 | 10000 ± 7780 |  |  | CC(C)C1CCN(CCCC(=O)c2ccc(Br)cc2)CC1 | 1.16 ± 0.05 | 64.8 ± 4.19 |  |  | 
3 |  | 286 ± 27 |  | O=C(Nc1cccc(CN2CCNCC2)c1)c1ccc(Cl)c(OCc2ccccc2)c1 [Entry 6] |  |  | 16.1 ± 1.5 | 42.6 ± 3.1 | 
4 | 2680 ± 166 |  |  | COc1ccc(Cl)cc1C(=O)Nc1ccc(CCN2CCCCC2)cc1 | 1.51 ± 0.01 | > 100 |  |  | 
5 | 16 ± 1.9 |  |  | Cc1ncc(Cl)cc1NC(=O)c1cc(-c2ccc(F)c(O)c2)on1 | 10.69 ± 1.00 | > 100 |  |  | 9.12 ± 0.88
6 | 7250 ± 526 |  |  | COc1ccc(Cl)cc1C(=O)Nc1ccc(CCN2CCNCC2)cc1 [drawing 154] | 1.31 ± 0.03 | > 100 |  |  | 
7 | 37500 ± 3630 |  |  | CN1CCN(c2ccc(NS(=O)(=O)c3cccc(Cl)c3)cc2)CC1 | 1.05 ± 0.03 | > 100 |  |  | 
8 |  |  | 366 ± 47.5 | COc1ccc(-c2cc(C(=O)Nc3cc(Cl)ncc3C)no2)cc1O [drawing 129] |  |  |  |  | 
9 |  | 490 ± 80 |  | O=C(Nc1ccc(CN2CCCCC2)cc1)c1ccc(Cl)c(OCc2ccc(F)cc2)c1 [Entry 12] |  |  | 10.1 ± 0.8 | 28.6 ± 1.1 | 
10 |  | 206 ± 21 |  | O=C(Nc1ccc(CN2CCNCC2)cc1)c1ccc(Cl)c(OCc2ccccc2)c1 [Entry 7] |  |  | 18.3 ± 1.3 | 46.4 ± 3.2 | 
11 |  |  |  | COc1ccc(Cl)cc1C(=O)Nc1ccc(CCN2CCN(C(=O)OC(C)(C)C)CC2)cc1 [drawing 174] | 1.90 ± 0.11 |  |  |  | 
12 | 76 ± 9.2 |  |  | O=C(Nc1cc(Cl)cc(Cl)c1)c1cc(-c2ccc(F)c(O)c2)on1 [drawing 191] | 11.22 ± 1.22 | > 100 |  |  | 
13 | 7610 ± 839 |  |  | COc1ccc(Cl)cc1C(=O)Nc1ccc(CCN2CCN(C(=O)OC(C)(C)C)CC2)cc1 [drawing 148] | 1.37 ± 0.02 | > 100 |  |  | 
14 | 189 ± 28 |  |  | COc1ccc(NC(=O)c2cc(-c3cccc(O)c3)on2)cc1Cl | 3.26 ± 0.32 | > 100 |  |  | 
15 |  |  | 100 ± 9.6 | Cc1cnc(Cl)cc1NC(=O)c1cc(-c2cccc(O)c2)on1 | 5.51 ± 0.99 | > 100 |  |  | 
16 | 71 ± 1.1 |  |  | O=C(Nc1cccc(Cl)c1Cl)c1cc(-c2ccc(F)c(O)c2)on1 [drawing 193] | 11.21 ± 1.38 | > 100 |  |  | 
17 | 819 ± 58.9 |  |  | Cc1cc(Cl)cc(NC(=O)c2cc(-c3ccc(F)c(O)c3)on2)c1 | 6.08 ± 0.52 | > 100 |  |  | 
18 | 60 ± 7.6 |  |  | COc1ccc(Cl)cc1NC(=O)c1cc(-c2cccc(O)c2)on1 | 10.89 ± 1.34 | > 100 |  |  | 6.95 ± 1.15
19 | 2.16 ± 0.45 |  |  | Cc1ccc(Cl)cc1NC(=O)c1cc(-c2ccc(Cl)c(O)c2)on1 |  | > 100 |  |  | 6.21 ± 0.66 (at 1.56 μM)

Row | EC50 ([1]; Table 1, average ± SEM) [nM] | EC50 [1, 3] [nM] | EC50 [1, 5] [nM] | Structure (SMILES) | Calcium Retention Capacity (CRC/CRC0 at 12.5 μM) (mtPTP; Table 1, average ± SEM) | EC50 (IMM potential; [2]) [µM] | Calcium Retention Capacity (CRC/CRC0 at 12.5 μM) (mtPTP; [3]) | EC50 (IMM potential; [4]) [µM] | Calcium Retention Capacity (CRC/CRC0) at 1.56 μM (mtPTP; Table 1, average ± SEM)
20 | 21400 ± 983 |  |  | O=S(=O)(Nc1ccc(CCN2CCNCC2)cc1)c1cc(Cl)cc(Cl)c1 | 1.09 ± 0.05 | > 100 |  |  | 
21 | 190 ± 17 |  |  | O=C(Nc1cc(Cl)cc(Cl)c1)c1cc(-c2cccc(O)c2)on1 | 12.08 ± 1.92 | > 100 |  |  | 5.72 ± 0.25
22 | 13 ± 2 |  |  | O=C(Nc1cccc(Cl)c1)c1cc(-c2ccc(F)c(O)c2)on1 | 10.17 ± 0.69 | > 100 |  |  | 
23 | 1540 ± 101 |  |  | COc1ccc(Cl)cc1C(=O)Nc1ccc(CN2CCCCC2)cc1 | 1.80 ± 0.00 | > 100 |  |  | 
24 |  | 521 ± 46 |  | O=C(Nc1ccc(CN2CCCCC2)cc1)c1cc(F)cc(OCc2ccccc2)c1 [Entry 1] |  |  | 10.8 ± 0.6 | 58.6 ± 2.9 | 
25 | 78.8 ± 5.8 |  |  | O=C(Nc1cccc(Cl)c1)c1cc(-c2cccc(O)c2)on1 [drawing 182] |  | > 100 |  |  | 4.13 ± 0.17 (at 1.56 μM)
26 |  | 423 ± 28 |  | CN1CCN(Cc2ccc(NC(=O)c3ccc(Cl)c(OCc4ccccc4)c3)cc2)CC1 [Entry 5] |  |  | 14.1 ± 1.1 | 49.6 ± 4.3 | 
27 | 2450 ± 148 |  |  | Cc1ccccc1NC(=O)c1cc(-c2ccc(O)cc2)on1 | 2.94 ± 0.46 | > 100 |  |  | 
28 |  | 1190 ± 330 |  | O=C(Nc1ccc(CN2CCCCC2)cc1)c1ccc(Cl)c(OCc2cccc(Cl)c2)c1 [Entry 8] |  |  | 6.50 ± 1.20 | 23.2 ± 1.3 | 
29 | 78 ± 5 |  |  | Cc1cc(Cl)cc(NC(=O)c2cc(-c3cccc(O)c3)on2)c1 | 9.34 ± 1.04 | > 100 |  |  | 
30 | 55.4 ± 4.1 |  |  | O=C(Nc1cccc(Cl)c1Cl)c1cc(-c2ccc(F)c(O)c2)on1 [drawing 136] | 9.37 ± 0.65 | > 100 |  |  | 
31 | 2.4 ± 0.4 |  |  | COc1ccc(-c2cc(C(=O)Nc3cc(Cl)ccc3C)n[nH]2)cc1O |  | > 100 |  |  | 7.51 ± 0.47 (at 1.56 μM)
32 | 1610 ± 866 |  |  | CN(C)c1ccc(Cl)cc1NC(=O)c1cc(-c2cccc(O)c2)on1 | 2.22 ± 0.38 | > 100 |  |  | 
33 |  |  |  | COc1ccc(-c2cc(C(=O)Nc3cc(Cl)cc(Cl)c3)no2)cc1O [drawing 192] | 3.52 ± 0.44 |  |  |  | 
34 | 12.1 ± 1.4 |  |  | Cc1cccc(C)c1NC(=O)c1cc(-c2cccc(O)c2)on1 |  | > 100 |  |  | 8.12 ± 0.59 (at 1.56 μM)
35 | 6060 ± 748 |  |  | Cc1ccc(Cl)cc1NC(=O)c1cc(-c2ccccc2O)on1 | 2.10 ± 0.26 | > 100 |  |  | 
36 | 2210 ± 174 |  |  | O=C(Nc1cccc(Cl)c1)c1cc(-c2ccc(O)cc2)on1 | 3.50 ± 0.57 | > 100 |  |  | 
37 | 8120 ± 388 |  |  | COc1ccc(Cl)cc1C(=O)Nc1ccc(CN2CCOCC2)cc1 | 1.20 ± 0.00 | > 100 |  |  | 
38 | 0.134 ± 0.016 |  |  | Cc1ccc(Cl)cc1NC(=O)c1cc(-c2ccc(F)c(O)c2)on1 | 19.28 ± 1.59 | > 100 |  |  | 15.21 ± 1.26

Row | EC50 ([1]; Table 1, average ± SEM) [nM] | EC50 [1, 3] [nM] | EC50 [1, 5] [nM] | Structure (SMILES) | Calcium Retention Capacity (CRC/CRC0 at 12.5 μM) (mtPTP; Table 1, average ± SEM) | EC50 (IMM potential; [2]) [µM] | Calcium Retention Capacity (CRC/CRC0 at 12.5 μM) (mtPTP; [3]) | EC50 (IMM potential; [4]) [µM] | Calcium Retention Capacity (CRC/CRC0) at 1.56 μM (mtPTP; Table 1, average ± SEM)
39 |  |  |  | O=C(Nc1cccc(Cl)c1)c1cc(-c2cccc(O)c2)on1 [drawing 166] | 5.47 ± 0.57 |  |  |  | 
40 |  |  | 75.6 ± 9.2 | O=C(Nc1cc(Cl)cc(Cl)c1)c1cc(-c2ccc(F)c(O)c2)on1 [drawing 140] | 7.14 ± 0.69 | > 100 |  |  | 
41 | 0.00756 ± 0.00122 |  |  | COc1ccc(-c2cc(C(=O)Nc3cc(Cl)ccc3C)no2)cc1O | 14.44 ± 0.58 | > 100 |  |  | 10.02 ± 0.34
42 | 18000 ± 1330 |  |  | CC1(C)CCN(CCCC(=O)c2ccc(Br)cc2)CC1 | 1.10 ± 0.05 | > 100 |  |  | 
43 |  | 73 ± 7 |  | COc1ccc(/C=C/C(=O)Nc2cccc(Cl)c2)cc1O [Entry 13] |  |  | 7.67 ± 0.35 | > 100 | 
44 |  | 372 ± 28 |  | O=C(Nc1ccc(CN2CCCCC2)cc1)c1ccc(F)c(OCc2ccccc2)c1 [Entry 2] |  |  | 13.3 ± 1.0 | > 100 | 
45 | 366 ± 47.5 |  |  | COc1ccc(-c2cc(C(=O)Nc3cc(Cl)ncc3C)no2)cc1O [drawing 202] | 4.27 ± 0.40 | > 100 |  |  | 
46 |  | 403 ± 31 |  | O=C(Nc1ccc(CN2CCOCC2)cc1)c1ccc(Cl)c(OCc2ccccc2)c1 [Entry 4] |  |  | 8.81 ± 0.39 | > 100 | 
47 | 9 ± 1.4 |  |  | O=C(Nc1cc(Cl)ccc1F)c1cc(-c2ccc(F)c(O)c2)on1 | 10.07 ± 0.69 | > 100 |  |  | 
48 | 9240 ± 860 |  |  | COc1ccc(Cl)cc1C(=O)Nc1ccc(CN2CCN(C(=O)OC(C)(C)C)CC2)cc1 | 1.33 ± 0.06 | > 100 |  |  | 
49 | 1.34 ± 0.26 |  |  | Cc1ncc(Cl)cc1NC(=O)c1cc(-c2ccc(Cl)c(O)c2)on1 |  | > 100 |  |  | 6.91 ± 0.47 (at 1.56 μM)
50 |  | 4000 ± 660 |  | O=C(Nc1ccc(CN2CCCCC2)cc1)c1ccc(Cl)c(OCc2ccccc2Cl)c1 [Entry 9] |  |  | 2.37 ± 0.41 | > 100 | 
51 | 125 ± 7.1 |  |  | COc1ccc(/C=C/C(=O)Nc2cccc(Cl)c2)cc1O [drawing 143] | 11.05 ± 1.35 | > 100 |  |  | 
52 | 1520 ± 51.2 |  |  | O=C(Nc1cc(Cl)ccc1Cl)c1cc(-c2cccc(O)c2)on1 | 4.67 ± 0.31 | 38.5 ± 3.98 |  |  | 
53 |  | 1390 ± 170 |  | O=C(Nc1ccc(CN2CCCCC2)cc1)c1ccc(Cl)c(OCc2ccccc2F)c1 [Entry 11] |  |  | 2.59 ± 0.54 | > 100 | 
54 | 108 ± 10 |  |  | COc1ccc(-c2cc(C(=O)Nc3cccc(Cl)c3Cl)no2)cc1O |  | > 100 |  |  | 5.21 ± 0.50 (at 1.56 μM)
55 | 4710 ± 349 |  |  | Cc1ccc(Cl)cc1NC(=O)c1ccc(-c2cccc(O)c2)cc1 | 2.59 ± 0.22 | > 100 |  |  | 
56 |  |  |  | COc1ccc(/C=C/C(=O)Nc2cccc(Cl)c2)cc1O [drawing 175] | 14.02 ± 1.63 |  |  |  | 
